Type in all cases: in vitro ADME
What all share (conditions): procedure of Example 14

The target of one assay is T1, CYP1A2 (Homo sapiens, UniProt P05177).
T1 sequence (P05177 1-516): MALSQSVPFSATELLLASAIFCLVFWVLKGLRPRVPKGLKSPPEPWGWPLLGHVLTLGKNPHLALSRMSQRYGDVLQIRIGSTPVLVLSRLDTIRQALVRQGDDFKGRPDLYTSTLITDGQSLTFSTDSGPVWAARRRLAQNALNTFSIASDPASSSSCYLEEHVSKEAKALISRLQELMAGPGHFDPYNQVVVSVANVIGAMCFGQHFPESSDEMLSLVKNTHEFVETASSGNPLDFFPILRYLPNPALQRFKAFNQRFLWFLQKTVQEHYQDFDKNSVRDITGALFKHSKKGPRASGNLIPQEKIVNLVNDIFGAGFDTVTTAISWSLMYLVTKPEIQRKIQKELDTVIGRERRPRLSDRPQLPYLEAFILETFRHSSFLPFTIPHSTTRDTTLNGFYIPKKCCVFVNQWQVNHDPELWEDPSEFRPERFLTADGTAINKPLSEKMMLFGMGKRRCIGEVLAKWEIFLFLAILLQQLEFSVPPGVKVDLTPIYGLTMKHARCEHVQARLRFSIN
Kind of assay: Cytochrome P450 inhibition, pooled human hepatic microsome.

The target in a further assay is T2, CYP2C9 (Homo sapiens, UniProt P11712).
T2 construct: 0.2 mg protein/mL pooled human hepatic microsome enzyme; from tissue; host or cells: pooled human hepatic microsomes
T2 sequence (P11712 whole entry): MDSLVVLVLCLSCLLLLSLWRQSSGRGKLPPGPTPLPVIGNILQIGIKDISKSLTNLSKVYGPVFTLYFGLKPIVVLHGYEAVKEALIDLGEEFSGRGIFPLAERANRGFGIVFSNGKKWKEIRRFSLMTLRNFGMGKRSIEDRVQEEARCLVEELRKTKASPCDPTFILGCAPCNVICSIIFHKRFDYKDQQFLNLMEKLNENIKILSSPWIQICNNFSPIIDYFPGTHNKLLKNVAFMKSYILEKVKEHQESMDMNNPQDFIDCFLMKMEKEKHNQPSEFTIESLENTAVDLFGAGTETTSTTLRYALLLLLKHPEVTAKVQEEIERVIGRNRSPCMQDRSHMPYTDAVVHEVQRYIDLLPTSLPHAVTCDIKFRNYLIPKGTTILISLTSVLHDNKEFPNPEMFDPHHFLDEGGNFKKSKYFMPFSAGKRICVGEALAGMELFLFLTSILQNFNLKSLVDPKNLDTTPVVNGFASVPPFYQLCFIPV
Described as above.

Another assay has as its target T3, CYP2D6 (Homo sapiens, UniProt P10635).
T3 construct: 0.2 mg protein/mL pooled human hepatic microsome enzyme; from tissue; host or cells: pooled human hepatic microsomes
Description: Cytochrome P450 inhibition, pooled human hepatic microsome (O-demethylation of dextromethorphan).

Another assay has as its target T4, CYP3A4 (Homo sapiens, UniProt P08684).
T4 construct: 0.2 mg protein/mL pooled human hepatic microsome enzyme; from tissue; host or cells: pooled human hepatic microsomes
Kind of assay: Cytochrome P450 inhibition, pooled human hepatic microsome.

T4 sequence (P08684 whole entry): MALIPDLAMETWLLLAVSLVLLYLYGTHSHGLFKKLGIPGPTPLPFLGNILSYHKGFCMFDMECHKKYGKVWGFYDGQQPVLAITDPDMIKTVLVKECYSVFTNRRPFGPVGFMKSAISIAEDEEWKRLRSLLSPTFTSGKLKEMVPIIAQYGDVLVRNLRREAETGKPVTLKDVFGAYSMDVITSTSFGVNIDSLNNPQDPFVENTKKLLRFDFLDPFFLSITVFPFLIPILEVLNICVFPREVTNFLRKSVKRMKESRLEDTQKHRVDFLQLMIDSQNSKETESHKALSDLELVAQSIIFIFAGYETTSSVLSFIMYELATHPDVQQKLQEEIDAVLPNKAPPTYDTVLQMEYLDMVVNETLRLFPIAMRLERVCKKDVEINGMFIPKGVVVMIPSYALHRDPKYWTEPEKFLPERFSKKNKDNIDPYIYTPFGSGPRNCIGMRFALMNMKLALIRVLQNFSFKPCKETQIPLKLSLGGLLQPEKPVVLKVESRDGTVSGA
T3 sequence (P10635 whole entry): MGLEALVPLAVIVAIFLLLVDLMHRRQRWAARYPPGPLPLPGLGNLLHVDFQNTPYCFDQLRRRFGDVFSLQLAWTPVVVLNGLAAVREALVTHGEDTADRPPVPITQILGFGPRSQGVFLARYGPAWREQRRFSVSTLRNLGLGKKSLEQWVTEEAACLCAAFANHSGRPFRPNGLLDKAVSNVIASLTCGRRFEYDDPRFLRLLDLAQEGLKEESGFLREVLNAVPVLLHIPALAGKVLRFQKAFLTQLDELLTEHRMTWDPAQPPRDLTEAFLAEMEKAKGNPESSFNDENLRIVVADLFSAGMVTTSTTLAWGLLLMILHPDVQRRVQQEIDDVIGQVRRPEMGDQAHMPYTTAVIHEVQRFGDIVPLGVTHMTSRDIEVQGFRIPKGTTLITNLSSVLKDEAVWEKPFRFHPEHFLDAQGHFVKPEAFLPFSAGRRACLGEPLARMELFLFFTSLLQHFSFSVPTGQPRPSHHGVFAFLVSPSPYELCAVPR

As for `O=C(O)Cc1cn([C@H]2C[C@H]3CCC[C@@H](C2)N3[C@H]2C[C@@H]3CCC[C@@H](C3)C2)c2ccccc12` [Compound 7], the half-inhibitory concentration (IC50) at CYP1A2 was over 20 µM; against CYP2C9, over 20 µM; at CYP2D6, 14.6 µM; at CYP3A4 it was over 20 µM.
As for `c1ccc2c(c1)ccn2[C@H]1C[C@H]2CCC[C@@H](C1)N2[C@H]1C[C@@H]2CCC[C@@H](C2)C1` [Compound 11], the IC50 at CYP1A2, against CYP2C9, against CYP2D6 and against CYP3A4 was over 20 µM each time.
Turning to `O=C(O)Cc1cn([C@H]2C[C@H]3CCC[C@@H](C2)N3C2CCCCCCCCC2)c2ccccc12` [Compound 23, 2-(1-((1R,3r,5S)-9-cyclodecyl-9-azabicyclo[3.3.1]nonan-3-yl)-1H-indol-3-yl)acetic acid], the concentration for half-maximal inhibition (IC50) is over 20 µM on CYP1A2, over 20 µM at CYP2C9, 1.15 µM on CYP2D6 and over 20 µM on CYP3A4.
